Results reported in the NIST ThermoML archive (doi:10.1021/je4003256).
± gives the expanded uncertainty stated by the source.

Details: 101.33 kPa, Liquid; for speed of sound: Pulse-echo method; for mass density: Vibrating tube method

| SMILES | speed of sound (293.15 K) [m/s] | mass density (293.15 K) [kg/m3] | speed of sound (298.15 K) [m/s] | mass density (298.15 K) [kg/m3] | speed of sound (303.15 K) [m/s] | mass density (303.15 K) [kg/m3] | speed of sound (308.15 K) [m/s] | mass density (308.15 K) [kg/m3] | speed of sound (318.15 K) [m/s] | mass density (318.15 K) [kg/m3] | speed of sound (323.15 K) [m/s] | mass density (323.15 K) [kg/m3] | speed of sound (328.15 K) [m/s] | mass density (328.15 K) [kg/m3] | speed of sound (333.15 K) [m/s] | mass density (333.15 K) [kg/m3] | speed of sound (338.15 K) [m/s] | mass density (338.15 K) [kg/m3] | speed of sound (343.15 K) [m/s] | mass density (343.15 K) [kg/m3] | other results |
| --- | --- | --- | --- | --- | --- | --- | --- | --- | --- | --- | --- | --- | --- | --- | --- | --- | --- | --- | --- | --- | --- |
| C=CCc1ccc(O)c(OC)c1 [2-hydroxy-5-allylanisole] | 1497 ± 1.3 | 1066.48 ± 0.28 | 1478.7 ± 1.3 | 1062.06 ± 0.28 | 1460.3 ± 1.3 | 1057.64 ± 0.28 | 1442.2 ± 1.3 | 1053.21 ± 0.27 | 1406.1 ± 1.2 | 1044.35 ± 0.27 | 1388.2 ± 1.2 | 1039.92 ± 0.26 | 1370.5 ± 1.2 | 1035.48 ± 0.26 | 1352.8 ± 1.2 | 1031.04 ± 0.25 | 1335.2 ± 1.2 | 1026.6 ± 0.25 | 1317.8 ± 1.2 | 1022.15 ± 0.25 | speed of sound (288.15 K): 1515.3 ± 1.3 m/s; mass density (288.15 K): 1070.9 ± 0.29 kg/m3; speed of sound (313.15 K): 1424.1 ± 1.3 m/s; mass density (313.15 K): 1048.78 ± 0.27 kg/m3 |
| COC(=O)c1ccccc1O [methyl 2-hydroxybenzoate] | 1429.1 ± 1.3 | 1184.33 ± 0.38 | 1410.6 ± 1.3 | 1179.34 ± 0.38 | 1392.3 ± 1.2 | 1174.35 ± 0.37 | 1374 ± 1.2 | 1169.37 ± 0.37 | 1338.1 ± 1.2 | 1159.4 ± 0.36 | 1320.4 ± 1.2 | 1154.42 ± 0.36 | 1302.8 ± 1.2 | 1149.45 ± 0.35 | 1285.4 ± 1.2 | 1144.46 ± 0.35 | 1268.1 ± 1.2 | 1139.47 ± 0.34 | 1250.9 ± 1.2 | 1134.49 ± 0.34 | speed of sound (288.15 K): 1447.6 ± 1.3 m/s; mass density (288.15 K): 1189.32 ± 0.39 kg/m3; speed of sound (313.15 K): 1356 ± 1.2 m/s; mass density (313.15 K): 1164.38 ± 0.36 kg/m3 |
| Cc1cccc(O)c1 [3-methylphenol] | 1497.9 ± 1.3 | 1033.84 ± 0.26 | 1481.9 ± 1.3 | 1029.91 ± 0.25 | 1466.2 ± 1.3 | 1025.96 ± 0.25 | 1450.5 ± 1.3 | 1021.99 ± 0.25 | 1419.5 ± 1.3 | 1013.99 ± 0.24 | 1403.9 ± 1.2 | 1009.97 ± 0.24 | 1388.4 ± 1.2 | 1005.91 ± 0.23 | 1372.9 ± 1.2 | 1001.84 ± 0.23 | 1357.3 ± 1.2 | 997.743 ± 0.23 | 1341.8 ± 1.2 | 993.626 ± 0.23 | speed of sound (313.15 K): 1435 ± 1.3 m/s; mass density (313.15 K): 1018 ± 0.24 kg/m3 |
| Cc1ccc(O)cc1 [4-methylphenol] | 1502.9 ± 2.1 | 1034.09 ± 0.91 | 1487.2 ± 2.1 | 1030.25 ± 0.9 | 1471.4 ± 2.1 | 1026.39 ± 0.89 | 1455.6 ± 2.1 | 1022.5 ± 0.88 | 1424.3 ± 2.1 | 1014.66 ± 0.87 | 1408.7 ± 2.1 | 1010.7 ± 0.86 | 1393 ± 2.1 | 1006.72 ± 0.85 | 1377.4 ± 2.1 | 1002.7 ± 0.84 | 1361.8 ± 2.1 | 998.659 ± 0.84 | 1346.2 ± 2.1 | 994.587 ± 0.83 | speed of sound (313.15 K): 1440 ± 2.1 m/s; mass density (313.15 K): 1018.59 ± 0.88 kg/m3 |
| Oc1ccccc1 [phenol] | – | – | – | – | – | – | – | – | 1437.2 ± 1.3 | 1054.1 ± 0.27 | 1422.1 ± 1.3 | 1049.81 ± 0.27 | 1406.8 ± 1.2 | 1045.5 ± 0.27 | 1391.4 ± 1.2 | 1041.16 ± 0.26 | 1376.1 ± 1.2 | 1036.79 ± 0.26 | 1360.6 ± 1.2 | 1032.4 ± 0.26 | – |
| COc1ccccc1O [2-methoxyphenol] | 1548.3 ± 1.3 | 1133.81 ± 0.34 | 1528.7 ± 1.3 | 1128.96 ± 0.34 | 1509.3 ± 1.3 | 1124.11 ± 0.33 | 1490 ± 1.3 | 1119.25 ± 0.33 | 1451.5 ± 1.3 | 1109.51 ± 0.32 | 1432.4 ± 1.3 | 1104.63 ± 0.32 | 1413.5 ± 1.3 | 1099.74 ± 0.31 | 1394.6 ± 1.2 | 1094.84 ± 0.31 | 1375.8 ± 1.2 | 1089.94 ± 0.3 | 1357.1 ± 1.2 | 1085.02 ± 0.3 | speed of sound (288.15 K): 1567.6 ± 1.3 m/s; mass density (288.15 K): 1138.64 ± 0.34 kg/m3; speed of sound (313.15 K): 1470.7 ± 1.3 m/s; mass density (313.15 K): 1114.38 ± 0.32 kg/m3 |
| Cc1ccccc1O [2-methylphenol] | 1522.6 ± 1.3 | 1045.77 ± 0.27 | 1505.5 ± 1.3 | 1041.41 ± 0.26 | 1488.2 ± 1.3 | 1037.05 ± 0.26 | 1470.2 ± 1.3 | 1032.64 ± 0.26 | 1435.2 ± 1.3 | 1023.83 ± 0.25 | 1417.7 ± 1.3 | 1019.39 ± 0.24 | 1400.2 ± 1.2 | 1014.93 ± 0.24 | 1382.8 ± 1.2 | 1010.46 ± 0.24 | 1365.3 ± 1.2 | 1005.97 ± 0.23 | 1347.7 ± 1.2 | 1001.46 ± 0.23 | speed of sound (313.15 K): 1452.7 ± 1.3 m/s; mass density (313.15 K): 1028.25 ± 0.25 kg/m3 |
